# Laboratory results taken from patent US9624229B2, “Pyrimidine-2-amine compounds and their use as inhibitors of JAK kinases” (Rigel Pharmaceuticals, Inc., priority 2008, dated 2017).
# Biological target: Ba/F3 V617F cells (Homo sapiens, UniProt O60674, V617F, cells depend on it)
# Experiment: Proliferation assay (Cell Titer-Glo, 72 h) utilizing Ba/F3 V617F cells
# Format: cell-based, mouse
# Details: Ba/F3 V617F cells, proliferation, level of activity to inhibit JAK2, read-out: IC50 (the source's name)
# How it was run: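 Readout is CellTiter-Glo luminescence after 72 h at 37 °C, giving IC50. Cells: Ba/F3 V617F, 1×10^5 cells/mL in RPMI with 10% FBS, treated in duplicate with 3-fold dilution series made from 5 mM DMSO stock, 1:250 in 5% FBS medium, added at 2×.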
# Ba/F3 V617F cells, sequence (O60674 whole entry V617F): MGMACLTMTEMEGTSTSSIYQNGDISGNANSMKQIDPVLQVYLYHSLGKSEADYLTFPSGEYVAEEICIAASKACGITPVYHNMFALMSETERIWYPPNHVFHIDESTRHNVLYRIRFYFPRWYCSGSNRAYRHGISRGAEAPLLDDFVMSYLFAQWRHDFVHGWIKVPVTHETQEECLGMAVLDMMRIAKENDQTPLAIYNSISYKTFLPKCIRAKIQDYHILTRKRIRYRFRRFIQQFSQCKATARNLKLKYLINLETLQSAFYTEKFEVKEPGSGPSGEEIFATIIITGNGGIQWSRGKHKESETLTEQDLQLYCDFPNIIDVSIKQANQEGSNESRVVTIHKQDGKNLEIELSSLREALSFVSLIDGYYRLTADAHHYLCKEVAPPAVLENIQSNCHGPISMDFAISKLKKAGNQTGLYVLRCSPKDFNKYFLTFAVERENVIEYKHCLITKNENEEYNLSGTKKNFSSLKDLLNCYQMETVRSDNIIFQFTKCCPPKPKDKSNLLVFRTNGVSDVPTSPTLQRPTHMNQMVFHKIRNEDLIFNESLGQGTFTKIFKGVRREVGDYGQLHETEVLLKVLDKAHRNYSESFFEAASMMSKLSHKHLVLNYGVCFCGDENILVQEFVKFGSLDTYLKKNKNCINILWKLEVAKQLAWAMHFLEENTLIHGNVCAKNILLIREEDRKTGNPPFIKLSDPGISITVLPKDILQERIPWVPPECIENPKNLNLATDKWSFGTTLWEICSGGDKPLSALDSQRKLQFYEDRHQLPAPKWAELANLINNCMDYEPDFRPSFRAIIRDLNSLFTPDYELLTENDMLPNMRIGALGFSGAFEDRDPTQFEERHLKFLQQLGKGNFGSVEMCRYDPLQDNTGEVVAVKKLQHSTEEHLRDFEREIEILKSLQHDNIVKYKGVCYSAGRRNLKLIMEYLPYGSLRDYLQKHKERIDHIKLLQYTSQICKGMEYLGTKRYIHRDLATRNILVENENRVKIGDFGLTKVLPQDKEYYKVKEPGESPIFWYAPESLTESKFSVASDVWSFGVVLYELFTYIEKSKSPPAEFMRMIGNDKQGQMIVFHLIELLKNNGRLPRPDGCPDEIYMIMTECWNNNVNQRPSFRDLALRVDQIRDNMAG
row,Compound,GI50
1,"Cc1cc(Nc2nccc(-c3ccc(NC(=O)CN4CCOCC4)nc3)n2)ccc1N1C[C@@H]2C[C@H]1CN2C [compound 141, 4-(6-(2-(morpholin-4-yl)acetamido)pyridin-3-yl)-N-(3-methyl-4-((1S,4S)-5-methyl-2,5-diazabicyclo[2.2.1]heptan-2-yl)phenyl)pyrimidin-2-amine]",< 1000 nM
2,"CN1C[C@@H]2C[C@H]1CN2c1ccc(Nc2nccc(-c3ccc(NC(=O)CN4CCOCC4)nc3)n2)cc1 [compound 142, 4-(6-(2-(morpholin-4-yl)acetamido)pyridin-3-yl)-N-(4-((1S,4S)-5-methyl-2,5-diazabicyclo[2.2.1]heptan-2-yl)phenyl)pyrimidin-2-amine]",1000 to 10000 nM
3,"CN1C[C@@H]2C[C@H]1CN2c1ccc(Nc2nccc(-c3ccc(NC(=O)CN4CCOCC4)nc3)n2)cc1F [compound 143, 4-(6-(2-(morpholin-4-yl)acetamido)pyridin-3-yl)-N-(3-fluoro-4-((1S,4S)-5-methyl-2,5-diazabicyclo[2.2.1]heptan-2-yl)phenyl)pyrimidin-2-amine]",1000 to 10000 nM
4,"CC(=O)Nc1ccc(-c2ccnc(Nc3ccc(N4C[C@@H]5C[C@H]4CO5)c(C)c3)n2)cn1 [compound 147, 4-(6-(acetamido)pyridin-3-yl)-N-(3-methyl-4-((1S,4S)-5-oxa-2-azabicyclo[2.2.1]heptan-2-yl)phenyl)pyrimidin-2-amine]",< 1000 nM
5,"CCC(=O)N1C[C@@H]2C[C@H]1CN2c1ccc(Nc2nccc(-c3ccc(N)nc3)n2)cc1C [compound 148, 4-(6-aminopyridin-3-yl)-N-(3-methyl-4-((1S,4S)-5-ethylcarbonyl-2,5-diazabicyclo[2.2.1]heptan-2-yl)phenyl)pyrimidin-2-amine]",< 1000 nM
6,"CCC(=O)N1C[C@@H]2C[C@H]1CN2c1ccc(Nc2nccc(-c3ccc(NC(C)=O)nc3)n2)cc1C [compound 149, 4-(6-(acetamido)pyridin-3-yl)-N-(3-methyl-4-((1S,4S)-5-ethylcarbonyl-2,5-diazabicyclo[2.2.1]heptan-2-yl)phenyl)pyrimidin-2-amine]",< 1000 nM
7,"Cc1cc(Nc2nccc(-c3ccc(N)nc3)n2)ccc1N1C[C@@H]2C[C@H]1CN2S(C)(=O)=O [compound 150, 4-(6-aminopyridin-3-yl)-N-(3-methyl-4-((1S,4S)-5-methylsulfonyl-2,5-diazabicyclo[2.2.1]heptan-2-yl)phenyl)pyrimidin-2-amine]",< 1000 nM
8,"Cc1cc(Nc2nccc(-c3ccc(NS(C)(=O)=O)nc3)n2)ccc1N1C[C@@H]2C[C@H]1CN2C [compound 151, 4-(6-(methylsulfonylamino)pyridin-3-yl)-N-(3-methyl-4-((1S,4S)-5-methyl-2,5-diazabicyclo[2.2.1]heptan-2-yl)phenyl)pyrimidin-2-amine]",1000 to 10000 nM
9,"Cc1cc(Nc2nccc(-c3ccc(NC(=O)CN(C)C)nc3)n2)ccc1N1C[C@@H]2C[C@H]1CN2C [compound 152, 4-(6-(2-(dimethylamino)acetamido)-pyridin-3-yl)-N-(3-methyl-4-((1S,4S)-5-methyl-2,5-diazabicyclo[2.2.1]heptan-2-yl)phenyl)pyrimidin-2-amine]",< 1000 nM
10,"CN1C[C@@H]2C[C@H]1CN2c1ccc(Nc2nccc(-c3ccc(NS(C)(=O)=O)nc3)n2)cc1F [compound 153, 4-(6-(methylsulfonylamino)pyridin-3-yl)-N-(3-fluoro-4-((1S,4S)-5-methyl-2,5-diazabicyclo[2.2.1]heptan-2-yl)phenyl)pyrimidin-2-amine]",1000 to 10000 nM
11,"CN1C2CCC1CN(c1ccc(Nc3nccc(-c4ccc(N5CCOCC5)nc4)n3)cc1)C2 [compound 155, 4-(6-(morpholin-4-yl)pyridin-3-yl)-N-(4-(8-methyl-3,8-diazabicyclo[3.2.1]octan-3-yl)phenyl)pyrimidin-2-amine]",< 1000 nM
12,"CN1C2CCC1CN(c1ccc(Nc3nccc(-c4ccc(NS(C)(=O)=O)nc4)n3)cc1)C2 [compound 156, 4-(6-(methylsulfonylamino)pyridin-3-yl)-N-(4-(8-methyl-3,8-diazabicyclo[3.2.1]octan-3-yl)phenyl)pyrimidin-2-amine]",1000 to 10000 nM
13,"CN1C2CCC1CN(c1ccc(Nc3nccc(-c4cnc5c(c4)OC(C)(C)C(=O)N5)n3)cc1)C2 [compound 157, 4-(2,2-dimethyl-3-oxo-3,4-dihydro-2H-pyrido[3,2-b][1,4]oxazin-7-yl)-N-(4-(8-methyl-3,8-diazabicyclo[3.2.1]octan-3-yl)phenyl)pyrimidin-2-amine]",< 1000 nM
14,"CN1C2CCC1CN(c1ccc(Nc3nccc(-c4ccc(N)nc4)n3)cc1)C2 [compound 158, 4-(6-aminopyridin-3-yl)-N-(4-(8-methyl-3,8-diazabicyclo[3.2.1]octan-3-yl)phenyl)pyrimidin-2-amine]",< 1000 nM
15,"Cc1cc(Nc2nccc(-c3ccc(N4CCOCC4)nc3)n2)ccc1N1CCN2CCC1CC2 [compound 159, 4-(6-(morpholin-4-yl)pyridin-3-yl)-N-(3-methyl-4-(1,4-diazabicyclo[3.2.2]nonan-4-yl)phenyl)pyrimidin-2-amine]",< 1000 nM
16,"Cc1cc(Nc2nccc(-c3cnc4c(c3)OC(C)(C)C(=O)N4)n2)ccc1N1CCN2CCC1CC2 [compound 160, 4-(2,2-dimethyl-3-oxo-3,4-dihydro-2H-pyrido[3,2-b][1,4]oxazin-7-yl)-N-(3-methyl-4-(1,4-diazabicyclo[3.2.2]nonan-4-yl)phenyl)pyrimidin-2-amine]",< 1000 nM
17,"Cc1cc(Nc2nccc(-c3ccc(C(=O)Nc4ccccn4)cc3)n2)ccc1N1CCN2CCC1CC2 [compound 161, 4-(4-((pyridin-2-yl)aminocarbonyl)phenyl)-N-(3-methyl-4-(1,4-diazabicyclo[3.2.2]nonan-4-yl)phenyl)pyrimidin-2-amine]",< 1000 nM
18,"CC(=O)Nc1ccc(-c2ccnc(Nc3ccc(N4CC5CCC(C4)N5C)cc3)n2)cc1 [compound 162, 4-(4-(acetamido)phenyl)-N-(4-(8-methyl-3,8-diazabicyclo[3.2.1]octan-3-yl)phenyl)pyrimidin-2-amine]",< 1000 nM
19,"CCN(CC)c1nc(-c2ccnc(Nc3ccc(N4C[C@@H]5C[C@H]4CN5C)c(C)c3)n2)cs1 [compound 163, 4-(2-(diethylamino)thiazol-4-yl)-N-(3-methyl-4-((1S,4S)-5-methyl-2,5-diazabicyclo[2.2.1]heptan-2-yl)phenyl)pyrimidin-2-amine]",< 1000 nM
20,"CCN(CC)c1nc(-c2ccnc(Nc3ccc(N4C[C@@H]5C[C@H]4CN5C)c(F)c3)n2)cs1 [compound 164, 4-(2-(diethylamino)thiazol-4-yl)-N-(3-fluoro-4-((1S,4S)-5-methyl-2,5-diazabicyclo[2.2.1]heptan-2-yl)phenyl)pyrimidin-2-amine]",< 1000 nM
21,"Cc1cc(Nc2nccc(-c3cnc4c(c3)OC(C)(C)C(=O)N4)n2)ccc1N1CC2CCC(C1)N2C [compound 165, 4-(2,2-dimethyl-3-oxo-3,4-dihydro-2H-pyrido[3,2-b][1,4]oxazin-7-yl)-N-(3-methyl-4-(8-methyl-3,8-diazabicyclo[3.2.1]octan-3-yl)phenyl)pyrimidin-2-amine]",< 1000 nM
22,"Cc1cc(Nc2nccc(-c3ccc(N4CCOCC4)nc3)n2)ccc1N1CC2CCC(C1)N2C [compound 166, 4-(6-(morpholin-4-yl)pyridin-3-yl)-N-(3-methyl-4-(8-methyl-3,8-diazabicyclo[3.2.1]octan-3-yl)phenyl)pyrimidin-2-amine]",< 1000 nM
23,"Cc1cc(Nc2nccc(-c3ccc(NS(C)(=O)=O)nc3)n2)ccc1N1CC2CCC(C1)N2C [compound 167, 4-(6-(methylsulfonylamino)pyridin-3-yl)-N-(3-methyl-4-(8-methyl-3,8-diazabicyclo[3.2.1]octan-3-yl)phenyl)pyrimidin-2-amine]",< 1000 nM
24,"Cc1cc(Nc2nccc(-c3ccc(NC(=O)C(C)(C)C)cc3)n2)ccc1N1CC2CCC(C1)N2C [compound 168, 4-(4-(t-butylcarbonylamino)phenyl)-N-(3-methyl-4-(8-methyl-3,8-diazabicyclo[3.2.1]octan-3-yl)phenyl)pyrimidin-2-amine]",< 1000 nM

# Same assay, conditions: inhibition of JAK2 activity, proliferation of Ba/F3 V617F cells, read-out: IC50 (the source's name)
row,Compound,GI50
1,"Cc1cc(Nc2nccc(-c3ccc(NC(=O)NC4CC4)cc3)n2)cnc1N1C[C@@H]2C[C@H]1CN2C [compound 140, 4-(4-(3-cyclopropylureido)phenyl)-N-(5-methyl-6-((1S,4S)-5-methyl-2,5-diazabicyclo[2.2.1]heptan-2-yl)pyridin-3-yl)pyrimidin-2-amine]",1000 to 10000 nM
2,"Cc1cc(Nc2nccc(-c3ccc(NC(=O)CN4CCOCC4)nc3)n2)cnc1N1C[C@@H]2C[C@H]1CN2C [compound 144, 4-(6-(2-(morpholin-4-yl)acetamido)pyridin-3-yl)-N-(5-methyl-6-((1S,4S)-5-methyl-2,5-diazabicyclo[2.2.1]heptan-2-yl)pyridin-3-yl)pyrimidin-2-amine]",1000 to 10000 nM
3,"Cc1cc(Nc2nccc(-c3ccc(N)nc3)n2)cnc1N1C[C@@H]2C[C@H]1CN2C [compound 145, 4-(6-aminopyridin-3-yl)-N-(5-methyl-6-((1S,4S)-5-methyl-2,5-diazabicyclo[2.2.1]heptan-2-yl)pyridin-3-yl)pyrimidin-2-amine]",< 1000 nM
4,"CC(=O)Nc1ccc(-c2ccnc(Nc3cnc(N4C[C@@H]5C[C@H]4CN5C)c(C)c3)n2)cn1 [compound 146, 4-(6-(acetamido)pyridin-3-yl)-N-(5-methyl-6-((1S,4S)-5-methyl-2,5-diazabicyclo[2.2.1]heptan-2-yl)pyridin-3-yl)pyrimidin-2-amine]",1000 to 10000 nM
5,"Cc1cc(Nc2nccc(-c3ccc(NS(C)(=O)=O)nc3)n2)cnc1N1C[C@@H]2C[C@H]1CN2C [compound 154, 4-(6-(methylsulfonylamino)pyridin-3-yl)-N-(5-methyl-6-((1S,4S)-5-methyl-2,5-diazabicyclo[2.2.1]heptan-2-yl)pyridin-3-yl)pyrimidin-2-amine]",> 20000 nM
